Experimental data: patent US11178868B2, “Alkynyl-substituted 3-phenylpyrrolidine-2,4-diones and use thereof as herbicides” (Bayer CropScience Aktiengesellschaft, priority 2015, dated 2021)

How the values were obtained:
Type in all cases: in vivo
Alopecurus myosuroides [1] = test: Pre-emergence herbicidal effect; details: scored visually after 3 weeks
Excerpt: (§1) Seeds of monocotyledonous and dicotyledonous weed plants and crop plants are laid out in wood-fibre pots in sandy loam and covered with soil. The compounds according to the invention formulated in the form of wettable powders (WP) or as emulsion concentrates (EC) are then applied as aqueous suspension or emulsion at a water application rate of 600 to 800 I/ha (converted) with the addition of 0.2% wetting agent to the surface of the covering soil. After the treatment, the pots are placed in a greenhouse and kept under good growth conditions for the trial plants. The damage to the test plants is scored visually after a test period of 3 weeks by comparison with untreated controls (herbicidal activity in percent (%): 100% activity=the plants have died, 0% activity=like control plants).

Avena fatua [2] = test: Pre-emergence herbicidal effect; details: scored visually after 3 weeks
Excerpt: as §1

Echinochloa crus-galli [3] = test: Pre-emergence herbicidal effect; details: scored visually after 3 weeks
Excerpt: as §1

Lolium multiflorum [4] = test: Pre-emergence herbicidal effect; details: scored visually after 3 weeks
Excerpt: as §1

Setaria viridis [5] = test: Pre-emergence herbicidal effect; details: scored visually after 3 weeks
Excerpt: as §1

Alopecurus myosuroides [6] = test: Post-emergence herbicidal effect; details: assessed visually after about 3 weeks
Protocol: (§2) Seeds of monocotyledonous and dicotyledonous weed and crop plants are laid out in sandy loam in wood-fibre pots, covered with soil and cultivated in a greenhouse under good growth conditions. 2 to 3 weeks after sowing, the test plants are treated at the one-leaf stage. The compounds according to the invention, formulated in the form of wettable powders (WP) or as emulsion concentrates (EC), are then sprayed as aqueous suspension or emulsion at a water application rate of 600 to 800 I/ha (converted) with the addition of 0.2% of wetting agent onto the green parts of the plants. After the test plants have been left to stand in the greenhouse under optimal growth conditions for about 3 weeks, the action of the preparations is assessed visually in comparison to untreated controls (herbicidal action in percent (%): 100% activity=the plants have died, 0% activity=like control plants).

Avena fatua [7] = test: Post-emergence herbicidal effect; details: assessed visually after about 3 weeks
Protocol: as §2

Echinochloa crus-galli [8] = test: Post-emergence herbicidal effect; details: assessed visually after about 3 weeks
Protocol: as §2

Lolium multiflorum [9] = test: Post-emergence herbicidal effect; details: assessed visually after about 3 weeks
Protocol: as §2

Setaria viridis [10] = test: Post-emergence herbicidal effect; details: assessed visually after about 3 weeks
Protocol: as §2

Amaranthus retroflexus = test: Post-emergence herbicidal effect; details: 80 g a.i./ha, assessed visually after about 3 weeks
Protocol: as §2

Compound	Herbicidal effect against [%] ALOMY (Alopecurus myosuroides [1]; 80 g a.i./ha) [%]	Herbicidal effect against [%] ALOMY (Alopecurus myosuroides [1]; 320 g a.i./ha) [%]	Herbicidal effect against [%] AVEFA (Avena fatua [2]; 80 g a.i./ha) [%]	Herbicidal effect against [%] AVEFA (Avena fatua [2]; 320 g a.i./ha) [%]	Herbicidal effect against [%] ECHCG (Echinochloa crus-galli [3]; 80 g a.i./ha) [%]	Herbicidal effect against [%] ECHCG (Echinochloa crus-galli [3]; 320 g a.i./ha) [%]	Herbicidal effect against [%] LOLMU (Lolium multiflorum [4]; 80 g a.i./ha) [%]	Herbicidal effect against [%] LOLMU (Lolium multiflorum [4]; 320 g a.i./ha) [%]	Herbicidal effect against [%] SETVI (Setaria viridis [5]; 80 g a.i./ha) [%]	Herbicidal effect against [%] SETVI (Setaria viridis [5]; 320 g a.i./ha) [%]	Herbicidal effect against [%] ALOMY (Alopecurus myosuroides [6]; 20 g a.i./ha) [%]	Herbicidal effect against [%] ALOMY (Alopecurus myosuroides [6]; 80 g a.i./ha) [%]	Herbicidal effect against [%] AVEFA (Avena fatua [7]; 20 g a.i./ha) [%]	Herbicidal effect against [%] AVEFA (Avena fatua [7]; 80 g a.i./ha) [%]	Herbicidal effect against [%] ECHCG (Echinochloa crus-galli [8]; 20 g a.i./ha) [%]	Herbicidal effect against [%] ECHCG (Echinochloa crus-galli [8]; 80 g a.i./ha) [%]	Herbicidal effect against [%] LOLMU (Lolium multiflorum [9]; 20 g a.i./ha) [%]	Herbicidal effect against [%] LOLMU (Lolium multiflorum [9]; 80 g a.i./ha) [%]	Herbicidal effect against [%] SETVI (Setaria viridis [10]; 20 g a.i./ha) [%]	Herbicidal effect against [%] SETVI (Setaria viridis [10]; 80 g a.i./ha) [%]	other results
CC#Cc1cc(C)c(C2=C(OC(=O)OC(C)C)C3(CCCC(OCCOC)C3)NC2=O)c(C)c1 (stereo not drawn) [Example P14]	100	100	100	100	100	100	100	100	100	100	100	100	90	90	100	100	100	100	90	100	–
CC#Cc1ccc(C2=C(O)C3(CCCC(OCCOC)C3)NC2=O)c(CC)c1 (stereo not drawn) [Example D7]	100	100	–	100	100	100	100	100	100	100	100	100	100	100	100	100	100	100	100	100	–
CC#Cc1cc(CC)c(C2=C(O)C3(CCCC(OCC)C3)NC2=O)c(CC)c1 (stereo not drawn) [Example D1]	100	100	80	100	100	100	100	100	100	100	80	100	–	–	100	100	–	90	90	100	–
CC#Cc1cc(CC)c(C2=C(OC(=O)C(C)C)C3(CCCC(OCCOC)C3)NC2=O)c(CC)c1 (stereo not drawn) [Example P12]	100	100	100	100	100	100	100	100	100	100	100	100	100	100	100	100	100	100	100	100	–
CC#Cc1cc(CC)c(C2=C(O)C3(CCCC(OCCOC)C3)NC2=O)c(CC)c1 (stereo not drawn) [Example D5]	100	100	100	100	100	100	100	100	100	100	100	100	100	100	100	100	100	100	100	100	–
CC#Cc1cc(C)c(C2=C(O)C3(CCCC(OCCC)C3)NC2=O)c(C)c1 (stereo not drawn) [Example D3, 3-[2,6-Dimethyl-4-(prop-1-yn-1-yl)phenyl]-4-hydroxy-7-propoxy-1-azaspiro[4.5]dec-3-en-2-one]	100	100	80	100	100	100	100	100	100	100	–	–	–	90	100	100	80	100	80	100	Herbicidal effect against [%] AMARE (Amaranthus retroflexus): 90%
CC#Cc1cc(CC)c(C2=C(OC(=O)C(C)C)C3(CCCC(OCC)C3)NC2=O)c(CC)c1 (stereo not drawn) [Example P3]	90	100	–	80	100	100	100	100	100	100	–	–	–	–	–	90	–	–	–	–	–
C#Cc1cc(C)c(C2=C(OC(=O)C(C)C)C3(CCCC(OCCCC)C3)NC2=O)c(C)c1 (stereo not drawn) [Example P6]	–	80	–	–	–	90	–	100	–	100	–	–	–	–	–	–	–	–	–	–	–
CC#Cc1cc(CC)c(C2=C(OC(=O)OCC)C3(CCCC(OCC)C3)NC2=O)c(CC)c1 (single isomer, unassigned) [Example P2]	100	100	100	100	100	100	100	100	100	100	–	–	–	–	–	80	–	–	–	–	–
CC#Cc1cc(C)c(C2=C(O)C3(CCCC(OCC)C3)NC2=O)c(C)c1 (stereo not drawn) [Example D2]	100	100	80	100	100	100	100	100	100	100	–	90	–	–	90	100	–	100	–	90	–
C#Cc1cc(C)c(C2=C(OC(=O)OCC)C3(CCCC(OCCCC)C3)NC2=O)c(C)c1 (stereo not drawn) [Example P5]	80	100	–	80	90	100	90	100	90	100	–	–	–	–	–	–	–	–	–	–	–
C#Cc1cc(CC)c(C2=C(O)C3(CCCC(OCCOC)C3)NC2=O)c(CC)c1 (stereo not drawn) [Example D10]	90	100	90	100	100	100	–	–	100	100	90	90	80	90	90	90	–	–	–	–	–
